This passage reports IC50 results from US12157746B2, “Tetrahydro-1H-pyrazino[2,1-a]isoindolylquinoline compounds for the treatment of autoimmune disease” (F. HOFFMANN-LA ROCHE AG, priority 2018, dated 2024).

Molecules are shown by their SMILES.

The experiment deals with T1, human TLR7 (Homo sapiens, UniProt Q9NYK1).
T1 sequence (Q9NYK1 27-1049): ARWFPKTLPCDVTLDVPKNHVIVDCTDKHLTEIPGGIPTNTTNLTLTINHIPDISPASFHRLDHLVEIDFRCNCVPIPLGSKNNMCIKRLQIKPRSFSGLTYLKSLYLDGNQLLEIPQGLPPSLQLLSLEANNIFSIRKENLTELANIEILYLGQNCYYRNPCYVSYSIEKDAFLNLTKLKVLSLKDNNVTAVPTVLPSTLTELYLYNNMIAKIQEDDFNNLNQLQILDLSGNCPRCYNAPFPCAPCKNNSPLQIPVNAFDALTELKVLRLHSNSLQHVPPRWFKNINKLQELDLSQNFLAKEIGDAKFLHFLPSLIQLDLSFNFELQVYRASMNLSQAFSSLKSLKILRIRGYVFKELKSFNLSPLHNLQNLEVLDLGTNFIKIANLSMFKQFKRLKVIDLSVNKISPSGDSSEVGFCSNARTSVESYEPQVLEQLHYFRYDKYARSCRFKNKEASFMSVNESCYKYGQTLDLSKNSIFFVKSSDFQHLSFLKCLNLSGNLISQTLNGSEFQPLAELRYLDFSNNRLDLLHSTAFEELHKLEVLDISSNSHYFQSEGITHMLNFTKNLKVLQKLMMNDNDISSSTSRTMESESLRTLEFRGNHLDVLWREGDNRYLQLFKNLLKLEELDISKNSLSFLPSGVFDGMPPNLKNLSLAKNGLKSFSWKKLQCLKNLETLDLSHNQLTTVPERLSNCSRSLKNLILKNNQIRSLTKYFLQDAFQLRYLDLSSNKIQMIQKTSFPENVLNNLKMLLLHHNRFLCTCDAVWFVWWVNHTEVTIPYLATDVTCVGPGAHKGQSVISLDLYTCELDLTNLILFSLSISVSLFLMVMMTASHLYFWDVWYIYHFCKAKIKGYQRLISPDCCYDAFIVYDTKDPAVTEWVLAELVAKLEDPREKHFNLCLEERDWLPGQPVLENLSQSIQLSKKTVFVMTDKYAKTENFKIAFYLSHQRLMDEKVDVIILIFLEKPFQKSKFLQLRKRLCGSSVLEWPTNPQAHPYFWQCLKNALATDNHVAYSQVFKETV
Kind of experiment: HEK293-Blue-hTLR-7 cells assay. The note with it: HEK293-Blue-hTLR7 cells, R848 stimulation, 20 hrs, SEAP reporter; read-out: HEK/hTLR7 IC50. Type of experiment: cell-based. From the text:
HEK293-Blue-hTLR-7 Cells Assay:
A stable HEK293-Blue-hTLR-7 cell line was purchased from InvivoGen (Cat. #: hkb-htlr7, San Diego, California, USA). These cells were originally designed for studying the stimulation of human TLR7 by monitoring the activation of NF-κB. A SEAP (secreted embryonic alkaline phosphatase) reporter gene was placed under the control of the IFN-β minimal promoter fused to five NF-κB and AP-1-binding sites. The SEAP was induced by activating NF-κB and AP-1 via stimulating HEK-Blue hTLR7 cells with TLR7 ligands. Therefore the reporter expression was declined by TLR7 antagonist under the stimulation of a ligand, such as R848 (Resiquimod), for incubation of 20 hrs. The cell culture supernatant SEAP reporter activity was determined using QUANTI-Blue™ kit (Cat. #: rep-qb1, Invivogen, San Diego, Ca. USA) at a wavelength of 640 nm, a detection medium that turns purple or blue in the presence of alkaline phosphatase.
HEK293-Blue-hTLR7 cells were incubated at a density of 250,000˜450,000 cells/mL in a volume of 170 μL in a 96-well plate in Dulbecco's Modified Eagle's medium (DMEM) containing 4.5 g/L glucose, 50 U/mL penicillin, […], […], 2 mM L-glutamine, 10% (v/v) heat-inactivated fetal bovine serum with addition of 20 μL test compound 1n a serial dilution in the presence of final DMSO at 1% and 10 μL of 20 uM R848 in above DMEM, perform incubation under 37° C. in a CO2 incubator for 20 hrs. Then 20 μL of the supernatant from each well was incubated with 180 μL Quanti-blue substrate solution at 37° C. for 2 hrs and the absorbance was read at 620-655 nm using a spectrophotometer. The signaling pathway that TLR7 activation leads to downstream NF-κB activation has been widely accepted, and therefore similar reporter assay was modified for evaluating TLR7 antagonist.
Consider `C[C@@H]1CN(c2ccc(C#N)c3ncccc23)C[C@@H]2c3ccc(N4CCNC[C@H](O)C4)cc3CN12` [Example 53A, 5-[(4R,10bS)-8-[(6S)-6-hydroxy-1,4-diazepan-1-yl]-4-methyl-3,4,6,10b-tetrahydro-1H-pyrazino[2,1-a]isoindol-2-yl]quinoline-8-carbonitrile], for which the IC50 came to 3.9 nM.
With `C[C@@H]1CN(c2ccc(C#N)n3nccc23)C[C@@H]2c3ccc(N4CCNCC4)cc3CN12` [Example 5, 4-[(4R,10bS)-4-methyl-8-piperazin-1-yl-3,4,6,10b-tetrahydro-1H-pyrazino[2,1-a]isoindol-2-yl]pyrazolo[1,5-a]pyridine-7-carbonitrile] the figure was 4.9 nM; with `C[C@@H]1CN(c2ccc(C#N)c3ncccc23)C[C@@H]2c3ccc(N[C@H]4CNC[C@H]4F)cc3CN12` [Example 30, 5-[(4R,10bS)-8-[[(3S,4R)-4-fluoropyrrolidin-3-yl]amino]-4-methyl-3,4,6,10b-tetrahydro-1H-pyrazino[2,1-a]isoindol-2-yl]quinoline-8-carbonitrile], less than 3.2 nM.
With `C[C@@H]1CN(c2ccc(C#N)n3nccc23)C[C@@H]2c3ccc(N[C@H]4CNC[C@H]4F)cc3CN12` [Example 98, 4-[(4R,10bS)-8-[[(3S,4R)-4-fluoropyrrolidin-3-yl]amino]-4-methyl-3,4,6,10b-tetrahydro-1H-pyrazino[2,1-a]isoindol-2-yl]pyrazolo[1,5-a]pyridine-7-carbonitrile] the figure was 23.2 nM; with `[2H]c1ccc2c(N3C[C@@H](C)N4Cc5cc(N[C@H]6CNC[C@H]6F)ccc5[C@H]4C3)ccc(C#N)c2n1` [Example 91, 5-[(4R,10bS)-8-[[(3S,4R)-4-fluoropyrrolidin-3-yl]amino]-4-methyl-3,4,6,10b-tetrahydro-1H-pyrazino[2,1-a]isoindol-2-yl]-2-deuterio-quinoline-8-carbonitrile], 1.7 nM.
With `CN[C@H]1CN(c2ccc3c(c2)CN2[C@H](C)CN(c4ccc(C#N)c5ncccc45)C[C@H]32)C[C@@H]1O` [Example 42, 5-[(4R,10bS)-8-[(3S,4S)-3-hydroxy-4-(methylamino)pyrrolidin-1-yl]-4-methyl-3,4,6,10b-tetrahydro-1H-pyrazino[2,1-a]isoindol-2-yl]quinoline-8-carbonitrile] the figure was less than 3.2 nM; with `C[C@@H]1CN(c2ccc(C#N)c3ncccc23)C[C@@H]2c3ccc(N4CC(N)C4)cc3CN12` [Example 22, 5-[(4R,10bS)-8-(3-aminoazetidin-1-yl)-4-methyl-3,4,6,10b-tetrahydro-1H-pyrazino[2,1-a]isoindol-2-yl]quinoline-8-carbonitrile], less than 3.2 nM; with `C[C@@H]1CN(c2ccc(C#N)n3nccc23)C[C@@H]2c3ccc(N4CC[C@@H](N)C4)cc3CN12` [Example 96, 4-[(4R,10bS)-8-[(3R)-3-aminopyrrolidin-1-yl]-4-methyl-3,4,6,10b-tetrahydro-1H-pyrazino[2,1-a]isoindol-2-yl]pyrazolo[1,5-a]pyridine-7-carbonitrile], 32.6 nM.
As to `C[C@@H]1CN(c2ccc(C#N)c3ncccc23)C[C@@H]2c3ccc(N4CCNC[C@@H](O)C4)cc3CN12` [Example 53B, 5-[(4R,10bS)-8-[(6R)-6-hydroxy-1,4-diazepan-1-yl]-4-methyl-3,4,6,10b-tetrahydro-1H-pyrazino[2,1-a]isoindol-2-yl]quinoline-8-carbonitrile], the IC50 was 8.9 nM.
With `CN[C@@H]1CN(c2ccc3c(c2)CN2[C@H](C)CN(c4ccc(C#N)c5ncccc45)C[C@H]32)C[C@H]1O` [Example 43, 5-[(4R,10bS)-4-methyl-8-[(3R,4R)-3-hydroxy-4-(methylamino)pyrrolidin-1-yl]-3,4,6,10b-tetrahydro-1H-pyrazino[2,1-a]isoindol-2-yl]quinoline-8-carbonitrile] the figure was 4 nM; with `C[C@@H]1CN(c2ccc(C#N)n3nccc23)C[C@@H]2c3ccc(N4CC[C@@](C)(N)C4)cc3CN12` [Example 103, 4-[(4R,10bS)-8-[(3R)-3-amino-3-methyl-pyrrolidin-1-yl]-4-methyl-3,4,6,10b-tetrahydro-1H-pyrazino[2,1-a]isoindol-2-yl]pyrazolo[1,5-a]pyridine-7-carbonitrile], 25.8 nM; with `CO[C@@H]1CN(c2ccc3c(c2)CN2[C@H](C)CN(c4ccc(C#N)n5nccc45)C[C@H]32)CC[C@H]1N` [Example 104, 4-[(4R,10bS)-8-[(3R,4R)-4-amino-3-methoxy-1-piperidyl]-4-methyl-3,4,6,10b-tetrahydro-1H-pyrazino[2,1-a]isoindol-2-yl]pyrazolo[1,5-a]pyridine-7-carbonitrile], 6.1 nM.
On to `C[C@@H]1CN(c2ccc(C#N)c3ncccc23)C[C@@H]2c3ccc(NC4CNC4)cc3CN12` [Example 28, 5-[(4R,10S)-8-(azetidin-3-ylamino)-4-methyl-3,4,6,10b-tetrahydro-1H-pyrazino[2,1-a]isoindol-2-yl]quinoline-8-carbonitrile], for which the IC50 stood at 15.6 nM.
With `C[C@@H]1CN(c2ccc(C#N)c3ncccc23)C[C@@H]2c3ccc(N4CC5(CN(C)C5)C4)cc3CN12` [Example 38, 5-[(4R,10bS)-4-methyl-8-(6-methyl-2,6-diazaspiro[3.3]heptan-2-yl)-3,4,6,10b-tetrahydro-1H-pyrazino[2,1-a]isoindol-2-yl]quinoline-8-carbonitrile], the IC50 came out at 1.7 nM.
With `C[C@@H]1CN(c2ccc(C#N)c3ncccc23)C[C@@H]2c3ccc(N4C[C@@H](F)[C@@H](N)C4)cc3CN12` [Example 46, 5-[(4R,10bS)-8-[(3S,4R)-3-amino-4-fluoro-pyrrolidin-1-yl]-4-methyl-3,4,6,10b-tetrahydro-1H-pyrazino[2,1-a]isoindol-2-yl]quinoline-8-carbonitrile] the figure was 15.6 nM; with `C[C@@H]1CN(c2ccc(C#N)n3nccc23)C[C@@H]2c3ccc(N4CCOC[C@H](N)C4)cc3CN12` [Example 101, 4-[(4R,10bS)-8-[(6R)-6-amino-1,4-oxazepan-4-yl]-4-methyl-3,4,6,10b-tetrahydro-1H-pyrazino[2,1-a]isoindol-2-yl]pyrazolo[1,5-a]pyridine-7-carbonitrile], 26.4 nM.
In the case of `C[C@@H]1CN(c2ccc(C#N)c3ncsc23)C[C@@H]2c3ccc(N4CCNCC4)cc3CN12` [Example 6, 7-[(4R,10bS)-4-methyl-8-piperazin-1-yl-3,4,6,10b-tetrahydro-1H-pyrazino[2,1-a]isoindol-2-yl]-1,3-benzothiazole-4-carbonitrile] it was less than 3.2 nM.
With `C[C@@H]1CN(c2ccc(C#N)c3ncccc23)C[C@@H]2c3ccc(N4C[C@H](N)[C@@](C)(O)C4)cc3CN12` [Example 45B, 5-[(4R,10bS)-8-[(3S,4S)-4-amino-3-hydroxy-3-methyl-pyrrolidin-1-yl]-4-methyl-3,4,6,10b-tetrahydro-1H-pyrazino[2,1-a]isoindol-2-yl]quinoline-8-carbonitrile], the IC50 turned out to be 3.3 nM.
With `C[C@@H]1CN(c2ccc(C#N)c3ncccc23)C[C@@H]2c3ccc(N4CCNC[C@H]4CO)cc3CN12` [Example 11, 5-[(4R,10S)-8-[(2S)-2-(hydroxymethyl)piperazin-1-yl]-4-methyl-3,4,6,10b-tetrahydro-1H-pyrazino[2,1-a]isoindol-2-yl]quinoline-8-carbonitrile] the figure was 3.4 nM.
